The target in the experiment is T1, Ubiquitin carboxyl-terminal hydrolase 30 (Homo sapiens, UniProt Q70CQ3).
T1 sequence (Q70CQ3 whole entry): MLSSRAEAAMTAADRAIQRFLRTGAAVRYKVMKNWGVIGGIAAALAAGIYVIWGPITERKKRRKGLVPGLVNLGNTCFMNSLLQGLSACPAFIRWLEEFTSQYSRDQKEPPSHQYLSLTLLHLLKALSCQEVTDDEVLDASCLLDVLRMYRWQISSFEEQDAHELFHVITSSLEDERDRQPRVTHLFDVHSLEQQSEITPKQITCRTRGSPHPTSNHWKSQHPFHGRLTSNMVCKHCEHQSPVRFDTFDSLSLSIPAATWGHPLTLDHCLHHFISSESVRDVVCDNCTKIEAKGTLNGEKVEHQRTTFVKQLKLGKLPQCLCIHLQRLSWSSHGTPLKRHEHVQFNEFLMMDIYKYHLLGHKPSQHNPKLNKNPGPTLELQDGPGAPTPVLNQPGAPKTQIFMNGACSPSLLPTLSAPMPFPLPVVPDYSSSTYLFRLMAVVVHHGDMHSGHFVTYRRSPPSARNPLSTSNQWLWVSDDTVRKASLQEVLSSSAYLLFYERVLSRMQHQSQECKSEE
In words: Biochemical Fluorescence Intensity Assay. On the procedure: A typical 8-point dilution series would be 100, 30, 10, 3, 1, 0.3, 0.1, 0.03 μM final. […] USP30 was diluted in reaction buffer (40 mM Tris, pH 7.5, 0.005% Tween 20, 0.5 mg/ml BSA, 5 mM beta-mercaptoethanol) to the equivalent of 0.001 μl/well and 10 μl of diluted USP30 was added to the compound. Enzyme and compound were incubated for 30 min at room temp. […] Reactions were read immediately after addition of substrate and following a 2 h incubation at room temperature.

In the case of `Cn1ccc(-c2ccc(NC(=O)N3CC[C@@H]4CN(C#N)C[C@@H]43)c(F)c2)n1` [US10343992, Example 245], the IC50 entry is “in the range around 550 nM”.

Regarding `CN(C(=O)CC1=NC2C=C(c3cnn(C)c3)N=CC2N1)C1CCN(C#N)C1` (configuration not stated) [US10343992, Example 263], the concentration for half-maximal inhibition (IC50) entry was “in the range around 550 nM”.

Broadly, the IC50 is the point on the concentration scale where inhibition reaches its midpoint.

The values above are taken from BindingDB's records for patent US10343992 (Missions Therapeutics, 2019).
